{"source": "patent EP0330283A1", "about": "“Novel 5,6-diphenyl-1,2-dihydro-3H-pyrrolo[1,2-a]pyrrole-1-carboxylic acid derivatives” (HISAMITSU PHARMACEUTICAL CO., INC., priority 1988, dated 1989)", "key": {"[1]": {"tested_on": "carrageenin-induced paw edema", "experiment": "Inhibitory actions on carrageenin-induced paw edema in rats", "format": "in vivo", "settings": "Rattus norvegicus, po, 60 min before carrageenin, male Wistar rats, 3 hours after induction, vs control group, read-out: Inhibition rate; for inhibition in vivo at 30 mg/kg: 30 mg/kg orally; for inhibition in vivo at 15 mg/kg: 15 mg/kg orally", "method": "Using, as test animals, male rats of Wistar strain each weighing approximately 150g, 0.1 ml of 1% x-carrageenin was subcutaneously injected into the paw of each rat to induce the reaction. Since then, the volume of paw edema was measured with the lapse of time. Each compound indicated in the following Table was orally administered to the rats 60 minutes before the induction of the reaction. As shown in the following Table, the results were expressed in terms of inhibition rate in comparison with those in control group 3 hours after the induction of the reaction."}, "collagen aggregation": {"tested_on": "collagen aggregation", "experiment": "Inhibitory actions on blood platelet aggregation induced by collagen (Born's nephelometry, platelet rich plasma)", "format": "cell-based", "settings": "Oryctolagus cuniculus, collagen (10µg/ml), rabbit PRP, read-out: Inhibiting rate; for inhibition at 30 µM: final concentration 30 μM; for inhibition at 10 µM: final concentration 10 μM", "method": "(§1) Nine (9) ml of blood were drawn from the concha artery of a rabbit into a syringe containing therein 1 ml of a 3.2% solution of sodium citrate, after which the whole mass was centrifuged at 1100 rpm for 10 minutes to collect platelet rich plasma (PRP). The blood from which the PRP had been collected was again centrifuged at 3000 rpm for 5 minutes to collect platelet poor plasma (PPP). The PRP was adjusted to have 500,000/µl of platelets (thrombocytes) by the use of the PPP.\n(§2) Four hundred and forty-five (445)µl of the thus adjusted PRP were introduced into a cuvette, warmed to 37° C for 5 minutes, incorporated with 5µl of a solution of each of the test compounds, further warmed for two minutes and then incorporated with 50µl of collagen (10µg/ml) or 50µl of arachidonic acid (350µM) thereby to induce platelet aggregation. The platelet aggregation was measured in accordance with the Born's nephelometry by the use of an Aggregometer produced by Sysmex Co."}, "[2]": {"tested_on": "arachidonic acid aggregation", "experiment": "Inhibitory actions on blood platelet aggregation induced by arachidonic acid (Born's nephelometry, platelet rich plasma)", "format": "cell-based", "settings": "arachidonic acid (350µM), rabbit PRP; for inhibition at 3 µM / inhibition at 10 µM / inhibition at 30 µM: Oryctolagus cuniculus, Platelet, read-out: Inhibiting rate", "method": "as §1, §2"}, "[3]": {"tested_on": "writhing induced by acetic acid", "experiment": "Inhibitory actions on the writhing induced by acetic acid in mice", "format": "in vivo", "settings": "30 mg/kg orally, 30 min before 0.6% acetic acid; male ddY mice; number of writhing vs control group", "method": "As test animals, there were provided groups consisting of 7-9 male ddY strain mice weighing 20-24g. Each of the compounds indicated in the following table was orally administered to the mice of one group. Thirty minutes later, 0.6% acetic acid was abdominally administered at a dose of 0.1ml/10g. Counting of the number of writhing was started 5 minutes later than the administration of the acetic acid and continued for 10 minutes. The inhibition rates were determined by comparing the number of writhing of the test group with that of the control group and were shown in the following Table."}, "gastric mucous damage": {"tested_on": "gastric mucous damage", "experiment": "Gastric mucous damage test in rats", "format": "in vivo", "settings": "10 mg/kg orally after fasting for 18 hours; male Wistar rats; stomachs observed 3.5 hours later", "method": "Using, as test animals, male rats of Wistar strain each weighing approximately 160g, the compounds of Examples 6 and 40 as well as indomethacin were each orally administered to the rats at the dose indicated in the following Table after their fasting for 18 hours. Three and a half (3.5) hours later, the rats were dissected to remove the stomachs therefrom. 10ml of a 70% ethanol were injected into the stomachs to fix them, and the stomachs were cut and washed with water and then visually observed to find whether ulcers were formed therein."}}, "data": [{"smiles": "O=C(O)C1CCn2c1cc(-c1ccc(F)cc1)c2-c1ccc(F)cc1", "note": "(racemic) [Example 38]", "values": [{"measurement": "inhibition in vivo at 30 mg/kg", "setting": "[1]", "result": 47.9, "unit": "%"}]}, {"smiles": "COc1ccc(-c2cc3n(c2-c2ccc(OC)cc2)CCC3C(=O)O)cc1", "note": "(racemic) [Example 39]", "values": [{"measurement": "inhibition in vivo at 15 mg/kg", "setting": "[1]", "result": 34.7, "unit": "%"}, {"measurement": "inhibition at 30 µM", "setting": "collagen aggregation", "result": 61.7, "unit": "%"}]}, {"smiles": "O=C(C1CCn2c1cc(-c1ccc(Cl)cc1)c2-c1ccc(Cl)cc1)N1CCOCC1", "note": "(racemic) [Example 61]", "values": [{"measurement": "inhibition at 3 µM", "setting": "[2]; final concentration 3 µM", "result": 10.1, "unit": "%"}, {"measurement": "inhibition at 10 µM", "setting": "[2]; final concentration 10 µM", "result": 89.4, "unit": "%"}, {"measurement": "inhibition at 30 µM", "setting": "[2]; final concentration 30 µM", "result": 91.4, "unit": "%"}]}, {"smiles": "CC(C)OC(=O)C1CCn2c(-c3ccc(Cl)cc3)c(-c3ccc(Cl)cc3)c(C(=O)O)c21", "note": "(racemic) [Example 4, 5,6-bis(p-chlorophenyl)-1,2-dihydro-3H-pyrrolo[1,2-a]pyrrole-1-isopropyl carboxylate ester-7-carboxylic acid]", "values": [{"measurement": "Inhibition rate", "setting": "[3]", "result": 56.4, "unit": "%"}, {"measurement": "inhibition in vivo at 30 mg/kg", "setting": "[1]", "result": 31.2, "unit": "%"}]}, {"smiles": "O=C(O)c1c(-c2ccc(Cl)cc2)c(-c2ccc(Cl)cc2)n2c1C(C(=O)O)CC2", "note": "(stereo not drawn) [Example 3, 5,6-bis(p-chlorophenyl)-1,2-dihydro-3H-pyrrolo[1,2-a]-pyrrole-1,7-dicarboxylic acid]", "values": [{"measurement": "Inhibition rate", "setting": "[3]", "result": 71.5, "unit": "%"}, {"measurement": "inhibition in vivo at 30 mg/kg", "setting": "[1]", "result": 44.7, "unit": "%"}]}, {"smiles": "COc1ccc2c(c1)c(CC(=O)O)c(C)n2C(=O)c1ccc(Cl)cc1", "note": "[Indomethacin]", "values": [{"measurement": "Ulcer formation", "setting": "gastric mucous damage", "result": "7/7"}]}, {"smiles": "Cc1ccc(-c2cc3n(c2-c2ccc(C)cc2)CCC3C(=O)O)cc1", "note": "(racemic) [Example 37]", "values": [{"measurement": "Inhibition rate", "setting": "[3]", "result": 45.4, "unit": "%"}, {"measurement": "inhibition in vivo at 15 mg/kg", "setting": "[1]", "result": 27.8, "unit": "%"}, {"measurement": "inhibition at 30 µM", "setting": "collagen aggregation", "result": 53.7, "unit": "%"}]}, {"smiles": "O=C(O)C1CCn2c1cc(-c1ccc(Cl)cc1)c2-c1ccc(Cl)cc1", "note": "(stereo not drawn) [Example 6, 5,6-bis(p-chlorophenyl)-1,2-dihydro-3H-pyrrolo[1,2-a]pyrrole-1-carboxylic acid]", "values": [{"measurement": "Inhibition rate", "setting": "[3]", "result": 81.3, "unit": "%"}, {"measurement": "inhibition in vivo at 30 mg/kg", "setting": "[1]", "result": 52.3, "unit": "%"}]}, {"smiles": "O=C(O)c1c(-c2ccc(F)cc2)c(-c2ccc(F)cc2)n2c1C(C(=O)O)CC2", "note": "(racemic) [Example 17]", "values": [{"measurement": "Inhibition rate", "setting": "[3]", "result": 78.4, "unit": "%"}, {"measurement": "inhibition in vivo at 30 mg/kg", "setting": "[1]", "result": 42.9, "unit": "%"}]}, {"smiles": "O=C(Nc1ccccc1)C1CCn2c1cc(-c1ccc(Cl)cc1)c2-c1ccc(Cl)cc1", "note": "(racemic) [Example 7, N-phenyl-5,6-bis(p-chlorophenyl)-1,2-dihydro-3H-pyrrolo[1,2-a]pyrrole-1-carboxylic acid amide]", "values": [{"measurement": "inhibition in vivo at 30 mg/kg", "setting": "[1]", "result": 37.4, "unit": "%"}, {"measurement": "inhibition at 10 µM", "setting": "collagen aggregation", "result": 78, "unit": "%"}]}, {"smiles": "O=C(Nc1ccccn1)C1CCn2c1cc(-c1ccc(Cl)cc1)c2-c1ccc(Cl)cc1", "note": "(racemic) [Example 46]", "values": [{"measurement": "inhibition in vivo at 30 mg/kg", "setting": "[1]", "result": 39.4, "unit": "%"}, {"measurement": "inhibition at 10 µM", "setting": "collagen aggregation", "result": 64, "unit": "%"}]}, {"smiles": "CC(C)OC(=O)C1CCn2c(-c3ccc(F)cc3)c(-c3ccc(F)cc3)c(C(=O)O)c21", "note": "(racemic) [Example 25]", "values": [{"measurement": "Inhibition rate", "setting": "[3]", "result": 49.1, "unit": "%"}, {"measurement": "inhibition in vivo at 30 mg/kg", "setting": "[1]", "result": 30.1, "unit": "%"}]}, {"smiles": "CCCCNC(=O)C1CCn2c1cc(-c1ccc(Cl)cc1)c2-c1ccc(Cl)cc1", "note": "(racemic) [Example 8, N-bytyl-5,6-bis(p-chlorophenyl)-1,2-dihydro-3H-pyrrolo[1,2-a]pyrrole-1-carboxylic acid amide]", "values": [{"measurement": "Inhibiting rate", "setting": "[2]; final concentration 3 µM", "result": 92.5, "unit": "%"}, {"measurement": "Inhibiting rate", "setting": "[2]; final concentration 10 µM", "result": 90.2, "unit": "%"}, {"measurement": "Inhibiting rate", "setting": "[2]; final concentration 30 µM", "result": 92.5, "unit": "%"}]}, {"smiles": "CN1CCN(NC(=O)C2CCn3c2cc(-c2ccc(Cl)cc2)c3-c2ccc(Cl)cc2)CC1", "note": "(racemic) [Example 59]", "values": [{"measurement": "inhibition in vivo at 30 mg/kg", "setting": "[1]", "result": 30.5, "unit": "%"}, {"measurement": "inhibition at 10 µM", "setting": "collagen aggregation", "result": 83.4, "unit": "%"}]}, {"smiles": "O=C(NCCCN1CCOCC1)C1CCn2c1cc(-c1ccc(Cl)cc1)c2-c1ccc(Cl)cc1", "note": "(racemic) [Example 57]", "values": [{"measurement": "inhibition in vivo at 30 mg/kg", "setting": "[1]", "result": 31.9, "unit": "%"}, {"measurement": "inhibition at 10 µM", "setting": "collagen aggregation", "result": 89.6, "unit": "%"}]}, {"smiles": "COc1ccc(-c2c(-c3ccc(Cl)cc3)cc3n2CCC3C(=O)O)cc1", "note": "(racemic) [Example 40]", "values": [{"measurement": "Inhibition rate", "setting": "[3]", "result": 87.3, "unit": "%"}, {"measurement": "inhibition in vivo at 30 mg/kg", "setting": "[1]", "result": 48.2, "unit": "%"}, {"measurement": "inhibition at 30 µM", "setting": "collagen aggregation", "result": 63.8, "unit": "%"}]}, {"smiles": "O=C(NC1CCCCC1)C1CCn2c1cc(-c1ccc(Cl)cc1)c2-c1ccc(Cl)cc1", "note": "(racemic) [Example 54]", "values": [{"measurement": "inhibition in vivo at 30 mg/kg", "setting": "[1]", "result": 40.2, "unit": "%"}, {"measurement": "inhibition at 10 µM", "setting": "collagen aggregation", "result": 79.5, "unit": "%"}, {"measurement": "inhibition at 3 µM", "setting": "[2]; final concentration 3 µM", "result": 93.5, "unit": "%"}, {"measurement": "inhibition at 10 µM", "setting": "[2]; final concentration 10 µM", "result": 93.5, "unit": "%"}, {"measurement": "inhibition at 30 µM", "setting": "[2]; final concentration 30 µM", "result": 91.9, "unit": "%"}]}, {"smiles": "O=C(NCc1ccccc1)C1CCn2c1cc(-c1ccc(Cl)cc1)c2-c1ccc(Cl)cc1", "note": "(racemic) [Example 48]", "values": [{"measurement": "inhibition at 3 µM", "setting": "[2]; final concentration 3 µM", "result": 14.3, "unit": "%"}, {"measurement": "inhibition at 10 µM", "setting": "[2]; final concentration 10 µM", "result": 86.5, "unit": "%"}, {"measurement": "inhibition at 30 µM", "setting": "[2]; final concentration 30 µM", "result": 91, "unit": "%"}]}, {"smiles": "O=C(Nc1ccc(Cl)cc1)C1CCn2c1cc(-c1ccc(Cl)cc1)c2-c1ccc(Cl)cc1", "note": "(racemic) [Example 41]", "values": [{"measurement": "inhibition at 3 µM", "setting": "[2]; final concentration 3 µM", "result": 83.4, "unit": "%"}, {"measurement": "inhibition at 10 µM", "setting": "[2]; final concentration 10 µM", "result": 88.7, "unit": "%"}, {"measurement": "inhibition at 30 µM", "setting": "[2]; final concentration 30 µM", "result": 89.4, "unit": "%"}]}]}
